In patent US10980776B2, “Synergistic pharmaceutical combination for the treatment of squamous cell carcinoma of head and neck” (Piramal Enterprises Limited, priority 2011, dated 2021):

What was measured:
Detroit-562 cells = test: Combination studies (single and sequential combination dosing), % cytotoxicity in Detroit-562 cells; conditions: Homo sapiens, Detroit 562, Detroit-562; for cytotoxicity at 14.1 µM: single agent at IC50 (compound B 14.1 μM); for cytotoxicity at 25.2 µM: single agent at IC70 (compound B 25.2 μM)
Method: (§1) Logarithmically growing cells were plated at a density of 3×10^3 cells/well and allowed to recover overnight. […] After 72 hours, cell toxicity was determined by CCK-8 (Cell Counting Kit-8) reagent (Dojindo Molecular Technologies, Japan); WST-8 (2-(2-methoxy-4-nitrophenyl)-3-(4-nitrophenyl)-5-(2, 4-disulfophenyl)]-2H-tetrazolium, monosodium salt) assay. In accordance with the manufacturer's instructions, 5 μl/well CCK-8 reagent was added and plates were incubated for 2 hours. The toxicity was determined by measuring the absorbance on Tecan Sapphire multi-fluorescence micro-plate reader (Tecan, Germany, GmbH) at a wavelength of 450 nm corrected to 650 nm and normalized to controls.
(§2) CCK-8 allows convenient assays using Dojindo's tetrazolium salt, WST [8[(2-(2-methoxy-4-nitrophenyl)-3-(4-nitrophenyl)-5-(2,4-disulfophenyl)-2H-tetrazolium, monosodium salt], which produces a water-soluble formazan dye upon bioreduction in the presence of an electron carrier, 1-Methoxy PMS. CCK-8 solution is added directly to the cells; no pre-mixing of components is required. CCK-8 is a sensitive nonradioactive colorimetric assay for determining the number of viable cells in cell proliferation and cytotoxicity assays. WST-8 is bio-reduced by cellular dehydrogenases to an orange formazan product that is soluble in tissue culture medium. The amount of formazan produced is directly proportional to the number of living cells. The detection sensitivity of cell proliferation assays using WST-8 is higher than assays using the other tetrazolium salts such as MIT, XTT, MTS or WST-1. Optical Density was determined at measurement wavelength of 450 nm and reference wave length of 630 nm.
(§3) Sorafenib in the following dose of final concentration 1.8 μM and compound A in the following doses of final concentration 0.5 μM, 1.3 μM and 12.1 μM were analyzed in single dose and in all possible combinations of the dose range for the two anticancer agents mentioned above. The sequence of treatment is as follows; Detroit-562 cells were treated with sorafenib for 0 to 24 hrs. At the end of 24 hrs the cells were washed two times with plain MEM medium. Fresh MEM with 10% serum (200 μL/well) was added, followed by treatment with compound A from 24 hrs to 96 hrs.
as §3, with “compound B” for “compound A”, “concentration 2.7” for “concentration 0.5”, “μM, 14.1” for “μM, 1.3”, “and 25.2” for “and 12.1”, “follows; the” for “follows;”
as §3, with “Lapatinib” for “Sorafenib”, “1” for “1.8”, “follows; the” for “follows;”, “lapatinib” for “sorafenib”
(§4) Lapatinib in the following dose of final concentration 1.0 μM and compound B in the following doses of final concentration 2.7 μM, 14.1 μM and 25.2 μM were analyzed in single dose and in all possible combinations of the dose range for the two drugs mentioned above. The sequence of treatment is as follows; the Detroit-562 cells were treated with lapatinib for 0 to 24 hrs. At the end of 24 hrs the cells were washed two times with plain MEM medium. Fresh MEM with 10% serum (200 μL/well) was added, followed by treatment with compound A from 24 hrs to 96 hrs.

SCC-25 cells = test: Combination studies (single and sequential combination dosing), % cytotoxicity in SCC-25 cells; conditions: Homo sapiens, SCC-25, SCC-25; for cytotoxicity at 1.1 µM: single agent at IC50 (compound B 1.1 μM)
Method: as §1, §2
Sorafenib in the following dose of final concentration 0.18 μM and compound A in the following doses of final concentration 0.1 μM, 0.4 μM and 4.1 μM were analyzed in single dose and in all possible combinations of the dose range for the two anticancer agents mentioned above. The sequence of treatment is as follows; the SCC-25 cells were treated with sorafenib for 0 to 24 hrs. At the end of 24 hrs the cells were washed two times with plain MEM (minimum essential media) medium. Fresh MEM with 10% serum (200 μL/well) was added, followed by treatment with compound A from 24 hrs to 96 hrs.
Sorafenib in the following dose of final concentration 0.18 μM and compound B in the following doses of final concentration 0.2 μM, 1.1 μM and 4.8 μM were analyzed in single dose and in all possible combinations of the dose range for the two anticancer agents mentioned above. The sequence of treatment is as follows; the SCC-25 cells were treated with sorafenib for 0 to 24 hrs. At the end of 24 hrs the cells were washed two times with plain MEM medium. Fresh MEM with 10% serum (200 μL/well) was added, followed by treatment with compound B from 24 hrs to 96 hrs.
as §4, with “0.2” for “1.0”, “A” for “B”, “0.2” for “2.7”, “0.5” for “14.1”, “3.3” for “25.2”, “SCC-25” for “Detroit-562”
as §4, with “0.2” for “1.0”, “0.2” for “2.7”, “1.1” for “14.1”, “4.8” for “25.2”, “SCC-25” for “Detroit-562”

FADU cells = test: cells; conditions: Homo sapiens; for cytotoxicity at 4.1 µM: single agent at IC50 (compound B 4.1 μM); for cytotoxicity at 9.6 µM: single agent at IC70 (compound B 9.6 μM)

CN1CC[C@@H](c2c(O)cc(O)c3c(=O)cc(-c4ccc(C(F)(F)F)cc4Cl)oc23)[C@@H]1CO.Cl [Compound B, (+)-trans-2-(2-chloro-4-trifluoromethyl-phenyl)-5,7-dihydroxy-8-(2-hydroxymethyl-1-methyl-pyrrolidin-3-yl)-chromen-4-one hydrochloride]
cytotoxicity at 2.7 µM (Detroit-562 cells; single agent at IC30 (lapatinib 1.0 μM; compound B 2.7 μM)): 15% | cytotoxicity at 2.7 µM (Detroit-562 cells; single agent at IC30 (sorafenib 1.8 μM; compound B 2.7 μM)): 15% | cytotoxicity at 14.1 µM (Detroit-562 cells; lapatinib study): 18% | cytotoxicity at 14.1 µM (Detroit-562 cells; sorafenib study): 19% | cytotoxicity at 25.2 µM (Detroit-562 cells; lapatinib study): 30% | cytotoxicity at 25.2 µM (Detroit-562 cells; sorafenib study): 26% | cytotoxicity at 0.2 µM (SCC-25 cells; single agent at IC30 (lapatinib 0.2 μM; compound B 0.2 μM)): 16% | cytotoxicity at 0.2 µM (SCC-25 cells; single agent at IC30 (sorafenib 0.18 μM; compound B 0.2 μM)): 16% | cytotoxicity at 1.1 µM (SCC-25 cells; lapatinib study): 19% | cytotoxicity at 1.1 µM (SCC-25 cells; sorafenib study): 19% | cytotoxicity at 2.3 µM (FADU cells; single agent at IC30 (lapatinib 0.8 μM; compound B 2.3 μM)): 21% | cytotoxicity at 2.3 µM (FADU cells; single agent at IC30 (sorafenib 3.9 μM; compound B 2.3 μM)): 14% | cytotoxicity at 4.1 µM (FADU cells; lapatinib study): 26% | cytotoxicity at 4.1 µM (FADU cells; sorafenib study): 20% | cytotoxicity at 9.6 µM (FADU cells; lapatinib study): 33% | cytotoxicity at 9.6 µM (FADU cells; sorafenib study): 27%
